We go through 8 compounds from patent US9346832B2, “Gold complexes for use in the treatment of cancer” (University of Kwazulu-Natal, priority 2010, dated 2016).

The test system of series [1] is 60 human cancer cell lines. Nature of the series: NCI-60 one-dose screen. The format is cell-based. The settings on record: single dose 10 μM. The protocol: (§1) The gold(III) complexes of this invention were screened by the National Cancer Institute (NCI, USA) against their panel of 60 different human cancer cell lines. These screens initially entail a one-dose test for the compound at a high concentration (10 μM; e.g. FIGS. 5, 6 and 7). Compounds with a good cytotoxicity profile in the one-dose screen are then subjected to a five-dose screen for the full panel of sixty human cancer cell lines (the so-called 5-dose NCI-60 screen). In the full five-dose screen, the compound concentration is varied in five doses from 10^−8 M to 10^−4 M in order to establish a dose-response function of percentage cell growth versus the concentration of the test agent. […] Similar data will shortly be available for compounds 1.1Y^1b and 1.5Y^1a as these derivatives are in 5-dose screens currently at the NCI.
The results of one-dose NCI-60 screens are noteworthy and merit some discussion as they quickly indicate activity profiles, cell-line specificity, and general cytotoxicity for the test agents across multiple human cancer cell lines. FIGS. 5, 6, and 7 set out the one-dose screening results for MA_AuPr (FIG. 5), KA_AumacroPr (FIG. 6), and KA_AuMelmPr (FIG. 7) obtained by the NCI. These three compounds are the parent derivatives that are representative of the three new types of gold(III) Schiff base chelate relevant to this invention. All other compounds synthesized as part of this invention have been similarly analyzed.

For the next series, the target named is T1, topoisomerase I (Homo sapiens, UniProt P11387).
T1 sequence (P11387 1-765): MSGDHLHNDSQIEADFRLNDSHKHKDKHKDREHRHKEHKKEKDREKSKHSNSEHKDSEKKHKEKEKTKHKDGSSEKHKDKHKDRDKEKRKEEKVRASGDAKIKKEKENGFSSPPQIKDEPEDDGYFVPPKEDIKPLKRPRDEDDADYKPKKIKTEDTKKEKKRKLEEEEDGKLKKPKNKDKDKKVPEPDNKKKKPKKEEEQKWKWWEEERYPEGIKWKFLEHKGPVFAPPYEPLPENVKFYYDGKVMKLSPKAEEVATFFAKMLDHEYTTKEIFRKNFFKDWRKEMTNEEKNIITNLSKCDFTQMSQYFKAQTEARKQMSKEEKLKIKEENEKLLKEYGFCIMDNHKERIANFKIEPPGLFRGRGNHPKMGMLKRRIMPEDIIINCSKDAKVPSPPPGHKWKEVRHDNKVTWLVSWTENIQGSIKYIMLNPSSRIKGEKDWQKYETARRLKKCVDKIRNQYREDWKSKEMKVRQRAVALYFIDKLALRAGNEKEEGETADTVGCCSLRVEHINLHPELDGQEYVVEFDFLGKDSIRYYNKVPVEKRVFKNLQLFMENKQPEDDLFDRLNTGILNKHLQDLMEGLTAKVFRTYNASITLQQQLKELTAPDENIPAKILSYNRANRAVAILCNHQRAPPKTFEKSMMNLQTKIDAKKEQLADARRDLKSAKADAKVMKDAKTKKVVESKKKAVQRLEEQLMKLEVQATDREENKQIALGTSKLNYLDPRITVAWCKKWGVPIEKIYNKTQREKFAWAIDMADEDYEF
Nature of the series: Supercoiled plasmid DNA relaxation assay with human topoisomerase I. The format is biochemical. As for the experimental part:
FIG. 19 is a photograph of a gel showing the inhibition of human topoisomerase I by KA_AumacroPr as determined by supercoiled plasmid DNA relaxation assay (agarose gel electrophoresis).
Lanes 2-12 have 5U of topoisomerase I. The enzyme fully relaxes supercoiled (SC) DNA in lanes 3-8 for KA_AumacroPr concentrations ranging from 0-50 nM.
This is consistent with strong intercalative binding of KA_AumacroPr to the plasmid DNA probably before and after the action of topoisomerase I, and consequently inhibition of its normal turnover cycle.

The test system of another series is HeLa cells. The experiment in a line: HeLa cell cytotoxicity dose-response. In kind it is cell-based. The protocol: FIG. 9 is a graph of the dose-response curves (HeLa cells, pH 7.0, 37° C.) for three macrocyclic Au(III) chelates. IC50 values for the complexes against HeLa cells obtained from the least squares data fits (graph) are given in the 3rd column of the table.
A summary of the average cytotoxicity data over 60 human cancer cell lines for 1.1a-1.1c and comparison with selected commercial and patented cytotoxic agents is shown in Scheme 7. […] The more abrupt the curve, the harder the dose-response function.

The next series relates to human cancer cell lines. Nature of the series: Cytotoxicity summary (NCI-60 or independent cytotoxicity screen), Scheme 19. In kind it is cell-based.
The subject of another series is calf thymus DNA. Nature of the series: Calf-thymus DNA titration (absorption hypochroism). In kind it is binding. As for the experimental part:
FIG. 20 is a graph of the titration of MA_AuPr (1.1a) with calf-thymus DNA in aqueous pH 7 phosphate buffer at 37° C.
The hypochroism of the absorption band of the complex at 383 nm was monitored as a function of added ctDNA. […] Ka is the equilibrium binding constant in M^−1, Ct is the total Au(III) complex concentration, and s is the binding site size.

Series [2] is described as follows: Hydrolysis in aqueous solution. The format is physicochemical. The settings on record: aqueous / phosphate buffered aqueous solutions. An excerpt:
This is why binding to DNA of the intact chelate occurs (FIGS. 14 and 20). However, it is noteworthy that hydrolysis of a Au(III)-Npyrrole bond is a reaction that may be catalyzed by enzymes in plasma and could account for the plasma instability of MA_AuPr.

The target in series [3] is topoisomerase II (topo II) (Homo sapiens, UniProt P11388). The experiment in a line: Topoisomerase II (topo II) DNA cleavage assay with kinetoplast DNA, agarose gel. In kind it is biochemical. As for the experimental part:
FIG. 18 is a photograph of an agarose gel electrophoresis topoisomerase II (topo II) DNA cleavage assay (66 ng kinetoplast DNA, 4 U topo II) as a function of the concentration of KA_AumacroPr (complex 1.1Y^1a) (top) and a graph of a standard dose-response function fit of the experimental titration data (top gel) with (solid line) and without (dashed line) a Hill coefficient. The maximum ESD from triplicate measurements is shown (15%). Lanes 1-4 of the gel contain catenated DNA (no topo II), decatenated DNA (topo II present), decatenated DNA (solvent control), and linear DNA, respectively. The lane marked VP-16 contained DNA, topo II, and etoposide (VP-16). Band labels: I, catenated DNA; II, open-circular (OC) DNA; III, linear DNA; IV, closed-covalently circular (CCC) DNA. […]
The topo II inhibition assay for the Au(III) macrocycle KA_AumacroPr is shown above in FIG. 18.

Series [4] concerns 60 human cancer cell lines. Nature of the series: NCI-60 five-dose screen, mean cytotoxicity over 60 human cancer cell lines. The note with it: mean over 60 human cancer cell lines. In kind it is cell-based. As for the experimental part:
as §1
The mean cytotoxicity data summarized in Scheme 7 were compiled over 60 human cancer cell lines from the NCI database. […] The dose-response curves for the bis(pyrrolide-imine) chelates of the invention are steeper, or harder, than those of all the compounds compared in Scheme 7.

In series [5] the test system is panel of human cancer cell lines. The note with it: cited from earlier work.
Series [6] relates to 60 human cancer cell lines. The note with it: comparison drugs, NCI database, mean over 60 cell lines, cited from earlier work.
Series [7] deals with 3LL tumor (Lewis lung carcinoma). The experiment in a line: 3LL tumor growth in black mice. The note with it: 20 days, 26 μmol/kg once weekly.

pIC50: −log10 of the molar value. Where two headings read alike, the source gives them in different places. Some results are limits rather than exact numbers.

Sequence of topoisomerase II (topo II) (P11388 whole entry): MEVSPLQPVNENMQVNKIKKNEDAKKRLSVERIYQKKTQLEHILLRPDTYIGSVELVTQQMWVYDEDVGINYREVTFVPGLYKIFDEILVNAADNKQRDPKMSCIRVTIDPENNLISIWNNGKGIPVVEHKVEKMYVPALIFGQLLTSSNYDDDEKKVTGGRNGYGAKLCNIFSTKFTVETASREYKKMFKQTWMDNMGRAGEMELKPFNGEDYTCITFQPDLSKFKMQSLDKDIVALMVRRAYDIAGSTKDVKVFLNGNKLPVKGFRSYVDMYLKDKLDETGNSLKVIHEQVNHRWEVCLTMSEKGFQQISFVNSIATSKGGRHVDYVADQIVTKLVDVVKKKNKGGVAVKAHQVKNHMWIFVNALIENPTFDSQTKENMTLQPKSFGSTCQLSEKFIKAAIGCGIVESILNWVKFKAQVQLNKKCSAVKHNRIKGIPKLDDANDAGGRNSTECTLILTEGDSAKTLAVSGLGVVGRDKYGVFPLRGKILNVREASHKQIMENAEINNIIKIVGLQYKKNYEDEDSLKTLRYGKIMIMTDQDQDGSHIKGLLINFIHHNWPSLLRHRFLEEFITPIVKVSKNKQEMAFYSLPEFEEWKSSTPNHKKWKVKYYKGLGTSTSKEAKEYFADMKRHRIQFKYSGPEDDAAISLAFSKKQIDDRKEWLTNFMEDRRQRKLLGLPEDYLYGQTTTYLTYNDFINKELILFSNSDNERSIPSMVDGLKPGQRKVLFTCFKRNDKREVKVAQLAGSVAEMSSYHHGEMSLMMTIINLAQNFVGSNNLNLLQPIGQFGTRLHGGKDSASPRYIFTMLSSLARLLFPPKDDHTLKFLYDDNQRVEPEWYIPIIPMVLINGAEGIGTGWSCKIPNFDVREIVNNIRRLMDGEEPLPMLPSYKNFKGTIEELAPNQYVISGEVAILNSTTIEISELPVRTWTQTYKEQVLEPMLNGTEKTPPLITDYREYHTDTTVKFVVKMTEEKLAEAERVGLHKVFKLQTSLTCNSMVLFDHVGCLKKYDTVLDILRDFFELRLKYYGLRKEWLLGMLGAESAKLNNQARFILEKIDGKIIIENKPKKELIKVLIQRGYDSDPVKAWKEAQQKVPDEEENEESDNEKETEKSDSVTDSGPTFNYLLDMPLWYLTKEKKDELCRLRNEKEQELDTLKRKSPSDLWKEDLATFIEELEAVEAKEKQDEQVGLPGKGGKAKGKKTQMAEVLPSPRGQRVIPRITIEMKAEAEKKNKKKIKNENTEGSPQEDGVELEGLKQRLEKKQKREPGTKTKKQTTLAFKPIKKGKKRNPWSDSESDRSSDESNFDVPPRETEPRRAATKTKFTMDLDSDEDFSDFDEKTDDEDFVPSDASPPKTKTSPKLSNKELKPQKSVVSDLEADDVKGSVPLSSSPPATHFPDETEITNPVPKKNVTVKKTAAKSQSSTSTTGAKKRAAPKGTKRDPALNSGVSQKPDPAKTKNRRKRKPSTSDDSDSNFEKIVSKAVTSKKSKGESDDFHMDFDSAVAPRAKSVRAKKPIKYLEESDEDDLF

On to “4,4′-{propane-1,3-diylbis[nitrilo(E)methylylide]}bis(5-methylimidazol-1-ide)gold(III) hexafluorophosphate(V) [KA_AuMelmPr]”, for which, in series [1], the one-dose screening result was “Breast and leukemia cell lines were, as a group, the most sensitive”.
As for `ClC1CN=Cc2ccc3[n]2[Au+][n]2c(ccc2-c2nc4ccccc4nc2-3)C=NC1.F[P-](F)(F)(F)(F)F` (stereo not drawn) [Compound 1.1Y^1e, {13-chloro-12,14-dihydro-6,9:17,20-diepimino[1,6]diazacyclo-heptadecino[12,13-β]quinoxalinato}gold(III) hexafluorophosphate(V)], the “action on human topoisomerase I” value on topoisomerase I (listed as 1.1Y^1b) was “catalytic inhibitor of human topoisomerase I”. Moreover, the GI50 – broadly, the concentration that inhibits growth by half – in the series with HeLa cells was approximately 100 nM. Also, the pIC50 (in general, −log10 of the IC50, conventionally taken in molar units) with HeLa cells (pH 7.0, 37° C.) was approximately 5.52. Besides, the Cytotoxicity result in the series with human cancer cell lines is recorded as “active”. Further, the “Ka (calf thymus DNA)” value with calf thymus DNA (KA series: pH 7.0 15% DMSO-TRIS buffer at 25° C., listed as 1.1Y^1a) is given as 2.8(2) × 10^6 M^−1; in the series with calf thymus DNA (KA series: pH 7.0 15% DMSO-TRIS buffer at 25° C., listed as 1.1Y^1b), 1.49(8) × 10^6 M^−1.
Turning to `C1=[N+]2CC[N+]3=Cc4ccc[n]4[Au-]23[n]2cccc21.F[P-](F)(F)(F)(F)F` [Compound 1.2a, 2,2′-{ethane-1,2-diylbis[nitrilo(E)methylylidene]}bis(pyrrol-1-ido)gold(III) hexafluorophosphate(V)], in series [2], the hydrolysis result is on record as “water may displace a pyrrole ring from the Au(III) ion”.
Turning to `C1=[N+]2CCC[N+]3=Cc4ccc5[n]4[Au-]23[n]2c1ccc2-c1nc2ccccc2nc1-5.F[P-](F)(F)(F)(F)F` [KA_AumacroPr, {12,13-dihydro-14H-6,9:17,20-diepimino[1,6]diazacyclo-heptadecino[12,13-β]quinoxalinato}gold(III) hexafluorophosphate(V)], the “action on human topoisomerase I” value at topoisomerase I was “interferes with the normal operation of human topoisomerase I”. Moreover, the “concentrations at which the enzyme fully relaxes supercoiled DNA” value at topoisomerase I (5U topoisomerase I) fell in the range of 0 to 50 nM. Further, the “concentrations at which topoisomerase I exhibits abnormal and incomplete substrate relaxation” value on topoisomerase I (5U topoisomerase I, up to 500 μM) was not below 500 nM. The one-dose screening result in series [1] is listed as “good cytotoxicity for the majority of the cell lines”. Moreover, the pIC50 in [3] (66 ng kinetoplast DNA, 4 U topo II, read-out: IC50 (enzyme inhibition)) is 5.32. The “action on topo II” value in series [3] (no trapped linear DNA cleavage products) is on record as “pure catalytic inhibitor”.
Regarding `F[P-](F)(F)(F)(F)F.OC1CN=Cc2ccc[n]2[Au+][n]2cccc2C=NC1` (stereo not drawn) [MA_AuOH, 2,2{(2-hydroxypropane-1,3-diyl)bis[nitrilo(E)methyl-ylidene]}bis(pyrrol-1-ido)gold(III) hexafluorophosphate(V)], in series [4] (50% cell death, read-out: LC50 (the source's name)), the CC50 was more than 100 µM. The compound further registered a GI50 in [4] (50% growth inhibition) of more than 100 µM. Moreover, the TGI (concentration for total growth inhibition) in series [4] (100% (total) growth inhibition, read-out: TGI or IC50) was more than 100 µM. In addition, the one-dose screening result in series [1] is recorded as “not sufficiently active”. In addition, in the series on calf thymus DNA (MA series: pH 7.0 phosphate buffer at 37° C.), the “Ka (calf thymus DNA)” value was 1.43(3) × 10^5 M^−1.
Consider `C1=Cc2nc1c(-c1ccccc1)c1ccc([n-]1)c(-c1ccccc1)c1nc(c(-c3ccccc3)c3ccc([n-]3)c2-c2ccccc2)C=C1.[Au+3].[Cl-]` [[Au(TPP)]Cl], for which, in series [5] (MTT assay, PBMCs and CCD-19Lu cells), the “cytotoxicity to cancer cells versus non-cancerous cells” value is given as “at least ten-fold higher cytotoxicity”.
Turning to `C1=Cc2nc1c(-c1ccccc1)c1ccc([nH]1)c(-c1ccccc1)c1nc(c(-c3ccccc3)c3ccc([nH]3)c2-c2ccccc2)C=C1` [[Zn^II(TPP)]], the pIC50 in series [5] (literature values) was less than 4.30.
`N.N.[Cl][Pt][Cl]` [cisplatin, cis-[PtCl2(NH3)2]]: the GI50 in series [6] (50% growth inhibition) was 2000 nM. Besides, the pIC50 in series [6] (read-out: TGI or IC50, total growth inhibition) was 4.57. In addition, the “reduction of 3LL tumor growth rate” value in series [7] was determined as 76%.
